Data as given in patent publication EP0339465A2, “Antibacterial composition for oral administration” (MEIJI SEIKA KAISHA LTD., priority 1988, dated 1989).

Experiment: Stability in aqueous solution
Assay type: physicochemical
Conditions: aqueous solution of a pH value of 6 or above

## CO/N=C(\C(=O)N[C@@H]1C(=O)N2C(C(=O)OCOC(=O)C(C)(C)C)=C(/C=C\c3scnc3C)CS[C@H]12)c1csc(N)n1 [substance ME1207, pivaloyloxymethyl-(6R,7R)-7[(Z)-2-(2-aminothiazol-4-yl)-2-methoxyiminoacetamide]-3-[(Z)-2-(4-methylthiazol-5-yl)ethenyl]cephem-4-carboxylate]
  stability in an aqueous solution: unstable
